Data taken from US8501680B2, “Antagonists against interaction of PF4 and RANTES” (RWTH Aachen, priority 2005, dated 2013).

Key:
[1] = system: atherosclerotic lesions in ApoE mice; experiment: Mouse model of atherosclerosis (ApoE mice on high-fat diet); format: in vivo; details: 50 μg intraperitoneal three times a week for 12 weeks
Protocol: The model for artherosclerosis [sic; atherosclerosis] was 9- to 12-week-old female ApoE litter-mate mice (The Jackson Lab, Bar Harbor, Me., USA). The mice were fed a high-fat diet (21% fat, Altromin® C1061) for 12 weeks. During this period of time, two groups of mice received intraperitoneal injections of 50 μg of the polypeptide of the sequence SEQ ID NO: 15 according to formula (15), administered three times a week, as indicated below:
(n=7 mice) in saline solution. An untreated group of mice (n=12) was used as additional controls.
The mice were sacrificed for histological examination. […] Blood samples were taken at the beginning and end of the experimental nutrition period. The white blood cell count was determined by hemocytometry and the sera were collected, the cholesterol using the Infinity cholesterol kits (Thermo Electron, Melbourne, Australia).
The extent of the atherosclerosis was determined at the aortic route and on thoracoabdominal aorta by staining lipid deposits using Oil Red O staining (N. R. Veillard, B. Kwak, G. Pelli, F. Mulhaupt, R. W. James, A. E. Proudfoot, F. Mach, Antagonism of RANTES receptors reduces atherosclerotic plaque formation in mice. Circ. Res. 2004; 94:253-61) and quantified by means of computerized image analysis (Diskus software, Hilgers, Aachen). Areas of atherosclerotic lesions were determined in 5 μm transverse sections through the heart and aortic root. The determination was performed for each aortic root on the basis of lipid stained areas of six sections a distance of 50 μm apart. The areas of atherosclerotic lesions were divided by the total surface area of the valve of each section. The thoracoabdominal aorta was opened along the ventral midline and the areas of the lesions were stained in an en-face preparation using Oil Red-O staining. The proportional amount of lipid deposit was calculated by dividing the stained area by the total thoracoabdominal surface area.

[2] = biological target: T1, interaction of RANTES and PF4 (Homo sapiens, UniProt P02776+P13501); experiment: Plasmon resonance (Biacore) study of inhibition of RANTES binding to immobilized biotinylated PF4
T1 construct: made in house; host or cells: chemical synthesis (t-Boc solid phase peptide synthesis and native chemical ligation); no expression host
T1 sequence (P13501 24-91): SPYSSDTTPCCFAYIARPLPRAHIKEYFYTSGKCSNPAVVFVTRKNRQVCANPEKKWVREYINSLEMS
T1 sequence (P02776 32-101): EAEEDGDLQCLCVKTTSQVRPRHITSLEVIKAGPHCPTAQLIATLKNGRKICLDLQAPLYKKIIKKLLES
Protocol: The plasmon resonance studies were performed using HBS-EP buffer (10 mM HEPES, 150 mM NaCl, 0.005% Tween 20, pH 7.4).
Two flow cells of a Cl chip (Biacore AB, Uppsala, Sweden) were activated by injection of 50 μL ethyl(dimethylaminopropyl)carbodiimide/N-hydroxysuccinimide (0.2M/0.05M, Pierce) and then 20 μL streptavidine (0.2 mg/mL, Sigma-Aldrich) was perfused over the activated surface. The surface was next inactivated by four successive injections of 20 μL […] (1M, pH 8, Sigma-Aldrich).
Biotinylated human PF4 (bPF4) at the N-terminus was chemically synthesized by means of t-Boc-based solid phase peptide synthesis and native chemical ligation of PF4 (Dawson, P. E., Kent, S. B. (2000), Annu. Rev. Biochem. 69:923-960, Hackeng, T. M., Griffin, J. H., Dawson, P. E. (1999), Proc. Natl. Acad. Sci. USA, vol. 96, pp. 10068-10073). The bPF4 was immobilized on the dextran surface of a Cl sensor chip by injecting 200 μg/mL bPF4 into HBS-EP through one of the flow chambers and recorded 240 resonance units (RU). The second flow chamber was not treated with bPF4 and served as the reference.
Binding of RANTES (0.5 μM, recombinant human RANTES, Peprotech, Rocky Hill, N.J., USA) or RANTES (0.5 μM) that had been preincubated with various concentrations (0 μM, 10 μM and 100 μM) of the polypeptide of the sequence SEQ ID NO: 3 according to formula (3) in HBS-EP buffer overnight at room temperature to bPF4 was determined by injection of 15 μL of the respective peptide/RANTES mixture and observation of the binding for 180 seconds. The coupling was determined and the measurements were performed in a Biacore 2000 apparatus (Biacore AB) at a flow rate of 5 μL/min. Sensor grams of the RANTES binding were corrected using the BIAevaluation 3.0 software (Biacore AB) to correct for nonspecific background signals and equilibrium resonance units (RU) were determined for each injection.
In another experiment under the same conditions as those described for example 1, the binding of RANTES (0.5 μM) or RANTES (0.5 μM) that had been preincubated with 0 μM, 10 μM, 50 μM and 100 μM of the polypeptide of the sequence SEQ ID NO: 3 according to formula (3), SEQ ID NO: 2 according to formula (2) or a control peptide of the sequence SEQ ID NO: 14 according to formula (14) as given below: […]

[3] = system: Mono Mac 6 cells on IL-1 activated HUVEC; arrest potentiated by RANTES and PF4; experiment: Inhibition of monocyte arrest on activated endothelium under flow; format: cell-based, human; details: 6 μM peptide, 60 nM RANTES and PF4, 1.5 dyn/cm2, adherent cells after 4 minutes
Protocol: Endothelial cells from the human umbilical cord (HUVEC, human umbilical vein endothelial cells, PromoCell, Heidelberg) were cultured in endothelial cell growth medium (PromoCell, Heidelberg) and used after two to four passages.
Monocytic Mono Mac 6 cells (MM6, DSMZ) were cultured in RPMI 1640 medium (PAA Laboratories, Pasching, Austria) with the addition of 10% fetal calf serum, 2 mM L-glutamine (Biowhittaker), 1 mM sodium pyruvate, 50 μg/mL gentamycin and 9 μg/mL insulin (MM6 medium). The cells were sown with a density of 2×10^5/mL in 2 mL MM6 medium in 24-well plates and cultured at 37° C. in a humid atmosphere with 5% CO2 for 3 to 4 days before being used for experiments.
The interaction of monocytic Mono Mac 6 cells on activated endothelial cells was investigated.
Petri dishes with confluent HUVEC cells layers activated with IL-113 (Interleukin 1(3, Peprotech, 10 ng/mL, 12 hours) were placed in a flow chamber. Mono Mac 6 cells (0.5×10^6 cells/mL) were resuspended in balanced Hank solution (HBSS with 10 mM HEPES (Gibco BRL), pH 7.3, 0.5% bovine serum albumin (Serva)) and kept on ice. Five minutes before the experiment, Ca^2+ and Mg^2+ were added to the monocytic MM6 cells to yield a final concentration of 1 mM and 60 nM of the chemokines RANTES (Peprotech, Rocky Hill, N.J., USA) and PF4 (ChromaTec, Greifswald), respectively, and 6 μM of the polypeptides of the sequence SEQ ID NO: 2 according to formula (2), the sequence SEQ ID NO: 3 according to formula (3) or a control peptide of the sequence SEQ ID NO: 14 according to formula (14) and then heated up to 37° C. Cells pretreated in this way were then perfused over endothelial cells at 1.5 dyn/cm^2 on a microscope of model IX 50 from Olympus. The number of monocytes that were adherent due to the interaction with the endothelial cells was determined after 4 minutes in various fields by image analysis of photographs by a video camera (3CCD, JVC) and recorder. The data were analyzed as the mean (n=5)±standard deviation (p<0.02) in comparison with a control.

## CKEYFYTSSKSSNLAVVFVTRC [SEQ ID NO: 15]
[1]
  area of the aortic root showing plaque in relation to the total valve surface area: significantly reduced
  macrophage content in the lesions: significantly reduced
[1]; Oil Red O staining
  development of atherosclerotic lesions in comparison with mice that received the control peptide: significant reduction

## KEYFYTSGK [SEQ ID NO: 14, control peptide, reference compound]
[2]; RANTES 0.5 μM preincubated with 100 μM peptide, Example 2
  inhibition of the interaction of RANTES and PF4 (in words): did not exhibit any detectable inhibition
[3]
  inhibition of potentiation of monocyte arrest due to heterophilic interaction of RANTES and PF4 (in words): no significant inhibition

## CKEYFYTSGKSSNPGIVFITRC [SEQ ID NO: 3]
[2]; RANTES 0.5 μM preincubated overnight with peptide at 100 μM, Example 1
  reduction of binding of RANTES to immobilized PF4: up to 35%
[2]; RANTES 0.5 μM preincubated with 0, 10 and 100 μM peptide, Example 1
  inhibition of the interaction of RANTES and PF4 (in words): concentration-dependent inhibition
[2]; RANTES 0.5 μM preincubated with 10 μM, 50 μM and 100 μM peptide, Example 2
  inhibition of the interaction of RANTES and PF4 (comparison in words): definitely more effective than the polypeptide of the sequence SEQ ID NO: 2
[3]
  inhibition of potentiation of monocyte arrest due to heterophilic interaction of RANTES and PF4: up to 80%

## CKEYFYTSGKCSNPAVVFVTRC [SEQ ID NO: 2]
[3]
  inhibition of potentiation of monocyte arrest due to heterophilic interaction of RANTES and PF4 (in words): weaker
